Test results taken from patent US6838465B2, “N-acyltetrahydroisoquinoline derivatives” (Banyu Pharmaceutical Co., Ltd., priority 2000, dated 2005).

Assays:
human OX2 receptor = target: T1, human OX2 receptor (Homo sapiens, UniProt O43614); experiment: Inhibition of orexin A-induced increase in intracellular calcium concentration (FLIPR), OX2 receptor expressing CHO-K1 cells; format: cell-based; conditions: CHO-K1 cells stably expressing human OX2 receptor; 0.3 nM orexin A; compound added 5 minutes before; fluo-3 AM; read-out: 50% Inhibition concentration, OX2 receptor
T1 construct: expressed in transfected cells
T1 sequence (O43614 1-444): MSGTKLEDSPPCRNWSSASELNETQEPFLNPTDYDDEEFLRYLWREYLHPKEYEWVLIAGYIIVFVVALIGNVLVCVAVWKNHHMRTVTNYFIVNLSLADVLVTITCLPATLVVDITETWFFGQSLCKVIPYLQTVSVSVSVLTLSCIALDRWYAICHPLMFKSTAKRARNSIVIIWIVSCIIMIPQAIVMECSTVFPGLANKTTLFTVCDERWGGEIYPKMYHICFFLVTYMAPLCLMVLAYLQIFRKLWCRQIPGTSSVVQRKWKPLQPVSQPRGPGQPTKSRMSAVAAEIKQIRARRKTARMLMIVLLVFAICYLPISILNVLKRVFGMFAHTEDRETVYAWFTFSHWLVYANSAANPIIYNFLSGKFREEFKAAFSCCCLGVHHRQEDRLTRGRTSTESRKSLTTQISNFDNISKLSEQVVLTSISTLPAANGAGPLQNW
Source text: (§1) A cDNA sequence encoding human orexin OX1 receptor or OX2 receptor (see GenBank, accession number AF 041243 and AF 041245) was cloned into the EcoRV-EcoRI site of a mamal expressed plasmid vector pIRESIneo (made by Clontech Laboratories, Inc.) and the PmlI-XbaI site of a mamal expressed plasmid vector pEF/myc/cyto (made by Invitrogen Corp.). The resulting vectors were respectively transfected into Chinese hamster's ovarian cells CHO-K1 (Americam Type Culture Collection, ATCC number CCL-61). Then, cells having resistance to 2 mg/ml of Geneticin (G418, made by Life Technologies, Inc.) were selected to obtain a cell line stably expressing a human OX1 receptor and a cell line stably expressing a human OX2 receptor. The OX1 receptor or OX2 receptor stably expressing cells were made to take up fluo-3, AM (made by Molecualr Probes Inc.), a fluorescent indicator of calcium concentration, and then 0.3 nM of orexin A was added to a suspension of the cells in an assay buffer (Hank's […] salt solution adjusted to pH 7.4 and containing 20 mM HEPES, 0.5% bovine serum albumin and 2.5 mM probenecid), and the change of the intracellular calcium concentration was measured with time lapse using FLIPR (Fluorometric Imaging Plate Reader, made by Molecular Devices Corp.). The effect of a test compound influencing the increase in the intracellular calcium concentration was assayed by adding the test compound in various concentrations to the assay solutions, 5 minutes before the addition of orexin A, and the 50% inhibition concentration (IC50 value) of the test compound against the increase in intracellular calcium concentration caused by the addition of 0.3 nM orexin A was determined (Table 1).

human OX1 receptor = target: T2, human OX1 receptor (Homo sapiens, UniProt O43613); experiment: Inhibition of orexin A-induced increase in intracellular calcium concentration (FLIPR), OX1 receptor expressing CHO-K1 cells; format: cell-based; conditions: CHO-K1 cells stably expressing human OX1 receptor; 0.3 nM orexin A; compound added 5 minutes before; fluo-3 AM; read-out: 50% Inhibition concentration, OX1 receptor
T2 construct: expressed in transfected cells
T2 sequence (O43613 1-425): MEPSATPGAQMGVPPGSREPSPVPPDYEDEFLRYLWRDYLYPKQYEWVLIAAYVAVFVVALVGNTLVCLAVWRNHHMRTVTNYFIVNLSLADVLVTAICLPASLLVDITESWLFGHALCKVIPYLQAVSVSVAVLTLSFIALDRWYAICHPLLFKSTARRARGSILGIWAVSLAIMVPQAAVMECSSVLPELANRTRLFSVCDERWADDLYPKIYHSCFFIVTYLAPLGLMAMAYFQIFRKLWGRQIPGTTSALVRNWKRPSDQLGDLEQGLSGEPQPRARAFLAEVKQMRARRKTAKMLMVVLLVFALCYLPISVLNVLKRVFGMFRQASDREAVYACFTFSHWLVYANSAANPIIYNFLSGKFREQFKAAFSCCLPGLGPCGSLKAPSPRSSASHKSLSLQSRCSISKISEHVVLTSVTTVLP
Source text: as §1

Compound | IC50 (human OX2 receptor) | IC50 (human OX1 receptor)
COc1cc2c(cc1OC)CN(C(=O)[C@@H](NCc1ccncc1)C(C)(C)C)CC2 [Example 6, (2S)-2-(N-4-pyridylmethyl)amino-1-(6,7-dimethoxy-1,2,3,4-tetrahydroisoquinolin-2yl)-3,3-dimethylbutan-1-one] | 110 nM | 24000 nM
COc1cc2c(cc1OC)CN(C(=O)C(Cc1ccccc1)NC(=O)c1cc(Cl)cc(Cl)c1)CC2 (centres unmarked) [Example 4, N-[2-(6,7-dimethoxy-1,2,3,4-tetrahydroisoquinolin-2-yl)-2-oxo-1-benzylethyl](3,5-dichlorophenyl)carboxyamide] | 31 nM | 5300 nM
COc1cc2c(cc1OC)CN(C(=O)[C@@H](NCc1cccc(Br)c1)C(C)(C)C)CC2 [Example 23, (2S)-2-(3-bromobenzylamino)-1-(6,7-dimethoxy-1,2,3,4-tetrahydroisoquinolin-2-yl)-3,3-dimethylbutan-1-one] | 140 nM | 4400 nM
COc1cc2c(cc1OC)CN(C(=O)[C@@H](NCc1nccs1)C(C)(C)C)CC2 [Example 8, (2S)-1-(6,7-dimethoxy-1,2,3,4-tetrahydroisoquinolin-2-yl)-3,3-dimethyl-2-((2-thiazolylmethyl)amino)butan-1-one] | 49 nM | 17000 nM
